This note sets out measurements from PubChem BioAssay AID179 (DTP/NCI, 2004).

Activity calls are given as the source filed them.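 The calls were made as follows: active = compounds giving half or more protection of infected cells from virus-caused growth loss, again on retest; inactive = the rest.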 Where a SMILES comes first, the peptide text is derived from it.

This assay relates to CEM cells HIV-1 protection, formazan growth assay. Put plainly: NCI AIDS Antiviral Assay. The conditions noted are these: for IC50: measured here: growth of uninfected CEM cells. Put shortly:
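Category rules: moderately active means at least 50% protection on retest, and confirmed active means 100% protection reproducibly. The underlying data came from a formazan growth assay in HIV-1-infected CEM cells.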

For the compound `CCOc1ccc(C(C2=C(O)c3ccccc3C(=O)C2=O)C2=C(O)c3ccccc3C(=O)C2=O)cc1OC`, the EC50 (commonly the concentration needed to bring the measured effect to its halfway point) was > 200 µM and the IC50 (in general, the concentration that inhibits the measured activity by half) came to 29.5 µM.
Consider `NCCCNOCCCN`, for which the EC50 was > 200 µM and the IC50 is > 200 µM.
In the case of `O=c1ccn(C2SC(CO)CC2F)c(=O)[nH]1` (stereo unspecified), the EC50 is > 25.1 µM and the IC50 is > 25.1 µM.
For `COc1cc(/C=C2\CCC(C)C3=C2N=c2s/c(=C/c4ccc(Cl)cc4)c(=O)n2C3c2cc(OC)c(OC)c(OC)c2)cc(OC)c1OC` (stereo unspecified), the EC50 is > 200 µM and the IC50 came to 102 µM.
Turning to `CC(C)CC(N)C(=O)NC(CC(=O)O)C(=O)NC(CCCCN)C(=O)NC(C)C(=O)NC(CO)C(=O)NC(Cc1ccc(O)cc1)C(=O)NC(CO)C(=O)NC(C(=O)NC(CC(N)=O)C(=O)O)C(C)O` (stereo unspecified) (H-LDKASYSTN-OH; configuration not given here), the EC50 was > 50.1 µM and the IC50 was > 50.1 µM.
Consider `CSc1n[nH]c(NC(=O)c2cccc(C(F)(F)F)c2)n1`, for which the EC50 is > 44.7 µM and the 50% inhibitory concentration (IC50) was > 44.7 µM.
Take `Cc1cc(CC(O)c2ccc(Cl)c(Cl)c2)nc(=O)[nH]1` (stereo unspecified): the EC50 was > 9.12 µM and the IC50 was > 9.12 µM.
Take `COc1ccc(C(=O)CC2=Nc3nnc(CCCCCCCc4nnc5n4C(=O)C(CC(=O)c4ccc(OC)cc4)=N5)n3C2=O)cc1`: the EC50 was > 4.27 µM and the half-maximal inhibitory concentration (IC50) is > 4.27 µM.
In the case of `COC(=O)c1ccccc1CC1Cc2cc3c(cc2C1=O)CCC3` (stereo unspecified), the EC50 was > 200 µM and the IC50 stood at 7.59 µM.
Consider `CC1C(C#N)(C#N)C(C#N)=C(N)C1(C)[N+](=O)[O-]` (stereo unspecified), for which the EC50 was > 200 µM and the concentration for half-maximal inhibition (IC50) came out at 27.5 µM.
Consider `CCOC(=O)C(CC#Cc1ccc(C#CCC(NC(C)=O)C(=O)OCC)cc1)NC(C)=O` (stereo unspecified), for which the EC50 is > 200 µM and the IC50 was > 200 µM.
For `CNC(=O)CN(CC(N)=O)C(=O)NC`, the EC50 was > 891 µM and the IC50 was > 891 µM.
As for `O=C1CCC(c2ccccc2)=NN1c1nsc2ccccc12`, the EC50 was > 85.1 µM and the IC50 is > 85.1 µM.
Consider `CC(=O)c1ccc2c(c1)NC(=O)CC(C)N2` (stereo unspecified), for which the EC50 is > 200 µM and the IC50 was > 200 µM.
On to `CC1CC(c2ccccc2)Nc2nc3ccccc3n21` (stereo unspecified), for which the EC50 is > 151 µM and the IC50 is > 151 µM.
As to `CC(C)OC(=S)SSC(=S)OC(C)C`, the EC50 was > 200 µM and the IC50 turned out to be 6.92 µM.
For the compound `O=C(O)C1=C(C(=O)O)C2c3ccccc3C1c1ccccc12`, the EC50 was > 200 µM and the IC50 is > 200 µM.
Consider `O=S(=O)([O-])c1ccc2c(c1)-c1nc-2nc2[n-]c(nc3nc(nc4[n-]c(n1)c1ccc(S(=O)(=O)[O-])cc41)-c1cc(S(=O)(=O)[O-])ccc1-3)c1ccc(S(=O)(=O)[O-])cc21.[Cu+2].[Na+]`, for which the EC50 was > 251 µM and the IC50 was determined as 0.603 µM.
Consider `NCCCOc1ccc(-c2c3nc(cc4ccc([nH]4)c(-c4ccc(OCCCN)cc4)c4nc(cc5ccc2[nH]5)C=C4)C=C3)cc1`, for which the EC50 is 2.4 µM and the IC50 is 3.31 µM.
On the same counts, the results for `COc1ccc(/C=c2\sc3nnc(CCC(=O)Nc4cccc(C(F)(F)F)c4)n3c2=O)cc1` are > 7.59 µM and > 7.59 µM.
For the compound `O=c1nc2c(c(-c3cccc(Cl)c3)[nH]1)COC/C2=C\c1cccc(Cl)c1`, the outcome was inactive.
For the compound `Cc1cc(S(=O)(=O)Nc2nc3cc(-c4ccc(Cl)cc4)sc3c(=O)n2N)c(S)cc1Cl`, the EC50 is > 200 µM and the IC50 was determined as 110 µM.
On the same counts, the results for `O=C(CCc1cc(-c2ccc(F)cc2)n[nH]1)N(Cc1ccccc1)Cc1ccccc1` are > 17.4 µM and > 17.4 µM.
As for `CC(C)(C)OC(=O)N1N=NC2C3OC(CC3=O)C21` (stereo unspecified), the EC50 was > 708 µM and the IC50 amounted to 355 µM.
In the case of `O=C1Cc2ccccc2CCc2ccccc21`, the EC50 is 135 µM and the IC50 was > 200 µM.
Turning to `C=C1C(=O)OC2/C=C(/CO)C3(O)CC(O)C(C)(CC(OC(=O)/C(C)=C/C)C12)O3` (stereo unspecified), the EC50 is > 631 µM and the IC50 is 1.17 µM.
Consider `Cc1cc(NS(=O)(=O)c2ccc(Nc3c4ccccc4nc4ccccc34)cc2)no1`, for which the EC50 is > 200 µM and the IC50 is 2 µM.
For `C=Cc1c2[n-]c(c1C)/C=c1\[n-]/c(c(C)c1C=C)=C\c1[n-]c(c(CCC(=O)O)c1C)/C=c1\[n-]/c(c(C)c1CCC(=O)O)=C\2.[Co]`, in that order: > 74.1 µM and > 74.1 µM.
Regarding `c1ccc(CNN2CN(NCc3ccccc3)CN(NCc3ccccc3)C2)cc1`, the EC50 was > 100 µM and the IC50 is 70.8 µM.
Regarding `C[N+](C)(C)c1cc2c(nn1)Nc1ccccc1S2`, the EC50 is > 200 µM and the IC50 was found to be 10 µM.
Turning to `CCOP(=O)(OCC)C(C)(CC)NC` (stereo unspecified), the EC50 is > 200 µM and the IC50 is > 200 µM.
Regarding `C/C(=N\NC(=O)c1ccncc1)c1ccc(F)cc1`, the EC50 was > 363 µM and the IC50 was > 363 µM.
Consider `CCCC(Cc1ccccc1)N1CCCC1` (stereo unspecified), for which the EC50 was > 200 µM and the IC50 is > 200 µM.
`O=c1c2ccccc2[nH]c2c(O)ccc(O)c12`: the outcome was inactive.
Consider `COC(=O)CCCc1ccc2c(c1)CC1(Cc3ccccc3C1)C2`, for which the EC50 is > 200 µM and the IC50 is > 200 µM.
Take `CC(=O)O[C@]12CCCCCC1C1(O)C(O)CCC[C@H]12` (stereo partly specified): the EC50 was > 200 µM and the IC50 was > 200 µM.
`COc1cccc(-c2nc(-c3cnccn3)n(C/C=C/c3ccccc3)n2)c1`: the EC50 was 178 µM and the IC50 was > 200 µM.
As to `Cc1ccc(N2C(=O)/C(=C/c3ccc(N(CCC#N)CCC#N)cc3)N=C2COc2ccc(Cl)cc2Cl)cc1`, the outcome was inactive.
Regarding `O=C(Nc1ccc2c(O)c(N=Nc3ccc4c(O)cc(S(=O)(=O)O)cc4c3)c(S(=O)(=O)O)cc2c1)c1ccccc1`, the EC50 was 18.6 µM and the IC50 was 50.1 µM.
On the same counts, the results for `Oc1ccc(/C=N/c2nccs2)c(O)c1` are > 200 µM and 138 µM.
As for `c1ccc([P+](c2ccccc2)(c2ccccc2)c2ccc([P+](c3ccccc3)(c3ccccc3)c3ccccc3)c3ccccc23)cc1`, the EC50 was > 200 µM and the IC50 turned out to be 110 µM.
On to `CCOC(=O)CC(C(=O)OCC)S(=O)(=O)O` (stereo unspecified), for which the EC50 was > 200 µM and the IC50 was > 200 µM.
With `CC(=O)Oc1ccc2cc(Oc3ccccc3)c(=O)oc2c1`, the EC50 was > 200 µM and the IC50 was found to be 85.1 µM.
On the same counts, the results for `Nc1ccc(Cl)cc1C(=O)N1CCN(c2ccc([N+](=O)[O-])cn2)CC1` are > 132 µM and 27.5 µM.
Take `NCCn1c(-c2ccccc2)nc2ccccc2c1=O`: the EC50 was > 200 µM and the IC50 worked out at 123 µM.
For the compound `O=C(N/N=C(/CCN1CCCC1)CC(c1ccccc1)c1c(O)c2ccccc2oc1=O)c1ccncc1` (stereo unspecified), the EC50 is > 34.7 µM.
Take `CC(C)(C)C1CCC(C[Se]c2ccc(Cl)cc2)([N+](=O)[O-])CC1` (stereo unspecified): the outcome was inactive.
Regarding `CN1CC(C)(C)C(O)c2ccccc21` (stereo unspecified), the EC50 is > 955 µM and the IC50 was found to be 525 µM.
Regarding `CCOc1ccccc1N1CSc2nnc(-c3ccccc3)n2C1`, the EC50 was > 148 µM and the IC50 was 83.2 µM.
On the same counts, the results for `NC(=S)N/N=C/c1cc(=O)c2cc(Cl)ccc2o1` are > 66.1 µM and > 66.1 µM.
Turning to `O=C1c2c([N+](=O)[O-])cc(S(=O)(=O)O)c(O)c2C(=O)c2c([N+](=O)[O-])cc(S(=O)(=O)O)c(O)c21`, the result was inactive.
Take `FC(F)(Oc1ccc2ccccc2c1)c1nc2ccccc2o1`: the EC50 was > 200 µM and the IC50 was determined as 25.7 µM.
On to `c1ccc(P(=C2c3ccccc3-c3ccccc32)(c2ccccc2)c2ccccc2)cc1`, for which the outcome was inactive.
On to `Fc1ccc(/C=N\N=C(N/N=C/c2ccc(F)cc2)N/N=C/c2ccc(F)cc2)cc1`, for which the EC50 is > 200 µM and the IC50 was found to be 19.5 µM.
Regarding `O=C(O)Cn1[se]c2ccccc2c1=O`, the concentration for a half-maximal effect (EC50) was 46.8 µM and the IC50 came to 120 µM.
On to `CCCCCCCCCCCCCCCCCC(=O)NCC(COP(=O)([O-])OCC[N+](C)(C)C)OC` (stereo unspecified), for which the result was inactive.
As for `CC(C)CC(N)C(=O)NC(Cc1ccc(O)cc1)C(=O)NC(CCC(=O)O)C(=O)N1CCCC1C(=O)NC(CO)C(=O)NC(Cc1ccc(O)cc1)C(=O)NC(C)C(=O)N1CCCC1C(=O)NC(CC(N)=O)C(=O)NC(Cc1cnc[nH]1)C(=O)NC(Cc1ccccc1)C(=O)O` (stereo unspecified) (H-LYEPSYAPNHF-OH; configuration not given here), the outcome was inactive.
Consider `COC(=O)c1cc(C(=CCC(=O)N[C@H]2CC[C@@]3(C)[C@@H](CC[C@@H]4[C@@H]3CC[C@]3(C)[C@@H]([C@H](C)CCCC(C)C)CC[C@@H]43)C2)c2cc(Cl)c(OC)c(C(=O)OC)c2)cc(Cl)c1OC`, for which the EC50 is > 200 µM and the IC50 is > 200 µM.
For `O=Cc1cc([N+](=O)[O-])no1`, the outcome was inactive.
As for `C=C1OC(c2ccccc2NC)=NC12CCCCC2`, the EC50 is > 200 µM and the IC50 came out at 115 µM.
Regarding `CCN(CC)CN1C(=O)C(=O)c2ccccc21`, the EC50 was > 200 µM and the IC50 is > 200 µM.
Take `COc1cc(N=Nc2ccccc2)ccc1NCS(=O)(=O)O`: the EC50 was > 200 µM and the IC50 came to 174 µM.
In the case of `O=C1[O][Hg][c]2cccc3cccc1c23`, the result was inactive.
`[Au+].[Au+].[Au+].[c-]1nccn1Cc1ccccc1.[c-]1nccn1Cc1ccccc1.[c-]1nccn1Cc1ccccc1`: the EC50 was > 3.55 µM and the IC50 was > 3.55 µM.
With `N/C(=N/n1c(=S)[nH]c2ccccc2c1=O)Nn1c(=S)[nH]c2ccccc2c1=O`, the EC50 is > 200 µM and the IC50 amounted to 19.1 µM.
As to `C=CCCC1CCCCNC1=S` (stereo unspecified), the EC50 is > 200 µM and the IC50 was > 200 µM.
Regarding `O=C1CC(C(O)CO)CC(=O)N1` (stereo unspecified), the EC50 is > 200 µM and the IC50 was > 200 µM.
For `CN(C)C1CS(=O)(=O)OC2=C1CCc1sccc12` (stereo unspecified), the EC50 was > 25.1 µM and the IC50 is > 25.1 µM.
Turning to `CCOC(=O)CSc1nc(-c2ccccc2)c(C#N)c(=O)[nH]1`, the outcome was inactive.
